Drawing on patent US20220402935A1, “HETEROCYCLIC COMPOUND” (FIMECS, INC., priority 2019, published 2022), this text covers DC50, IC50 and remaining binding for eight molecules.

Structures can show the parent of a compound that is named as a salt.

Assay [1] concerns the target T1, IRAK-M (Homo sapiens, UniProt Q9Y616).
T1 sequence (Q9Y616 1-596): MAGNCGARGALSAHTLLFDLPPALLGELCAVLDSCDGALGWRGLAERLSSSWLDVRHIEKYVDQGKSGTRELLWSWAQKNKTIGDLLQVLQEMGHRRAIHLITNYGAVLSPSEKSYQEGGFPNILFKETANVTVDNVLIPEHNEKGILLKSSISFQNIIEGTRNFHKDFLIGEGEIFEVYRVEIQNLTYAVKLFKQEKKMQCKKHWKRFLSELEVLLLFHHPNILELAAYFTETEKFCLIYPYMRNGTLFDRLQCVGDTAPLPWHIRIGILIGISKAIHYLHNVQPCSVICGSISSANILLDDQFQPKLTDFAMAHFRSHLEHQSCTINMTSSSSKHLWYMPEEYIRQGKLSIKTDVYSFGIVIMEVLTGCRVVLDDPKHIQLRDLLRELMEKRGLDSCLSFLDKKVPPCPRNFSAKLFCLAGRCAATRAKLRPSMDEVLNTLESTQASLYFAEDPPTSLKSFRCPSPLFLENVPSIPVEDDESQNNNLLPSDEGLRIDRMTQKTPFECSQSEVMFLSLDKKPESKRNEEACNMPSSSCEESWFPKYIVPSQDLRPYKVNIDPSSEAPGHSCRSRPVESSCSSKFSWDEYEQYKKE
The experiment in a line: In vitro degradation activity of target protein (IRAK-M ELISA in THP1 cells). The format is cell-based. On the set-up: host or cells: THP1 cells. The conditions noted are these: 24 hours, second symbol of cell, read-out: IRAK-M 50% degradation concentration (DC50 value). The method, then:
In vitro degradation activities of target protein of the example compounds were evaluated using Enzyme-linked immuno-sorbent assay (ELISA) by the following assay steps. THP1 cells (ATCC, TIB-202) were cultured in RPMI-1640 supplemented with 10% FBS, lx sodium pyruvate, lx HEPES, D-(+)-glucose and 1% penicillin/streptomycin. THP1 cells were seeded at a density of 1×10^6 cells/well in 24-well plate and treated with DMSO control or test compound, and then incubated for 24 hours. The cells were collected and lysed on ice for 30 minutes in lysis buffer (PBS containing 0.1% Triton X-100) containing a protease inhibitor cocktail (Roche, Cat #11836170001). The lysates were sonicated for 30 sec ON/30 sec OFF for ten cycles and centrifuged for 10 minutes at 13k rpm at 4° C. Protein concentrations were determined by the BCA assay (Sigma, Cat #QPBCA-1KT). The ELISA assay was performed using the Human IRAK3/IRAKM/IRAK-M ELISA Kit (LifeSpan BioSciences, Cat #LS-F35271), and the protein levels of IRAK-M were evaluated according to the kit protocol. As to the IRAK-M degradation rate of test compounds, protein degradation rate (%) when the concentration of the test compound is […] described as A≥75%, 50%≤B<75%, 25%≤C<50%, D<25%, or 50% degradation concentration (DC50 value) described as A<0.03 μM, 0.03 μM≤B<0.1 μM, 0.1 μM≤C<0.3 μM, 0.3 μM≤D<1 μM, is shown in the table below.

The target of assay [2] is T1, IRAK-M. The experiment in a line: IRAK-M binding inhibitory activity (KINOMEscan active site-dependent competitive assay). On the set-up: purchased Eurofins Discover X. The conditions noted are these: for IC50: second symbol of cell, read-out: IRAK-M binding inhibition IC50 value; for remaining binding at 1 µM: concentration of the test compound 1 μM, first symbol of cell, read-out: IRAK-M binding inhibition activity % Ctrl. In short, it runs like this: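 Readout given as % Ctrl, with DMSO as 100% and a control compound as 0%, scaling the test compound signal between them. Binding to human IRAK-M was assessed by KINOMEscan competition at the kinase active site.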

Assay [3] has as its target T2, human XIAP_BIR3 domain purified protein (Homo sapiens, UniProt P98170).
T2 construct: purchased R & D
The experiment in a line: XIAP binding inhibitory activity (HTRF, b-Smac ligand). As to conditions: second symbol of cell; read-out: XIAP binding inhibition IC50 value. In a few lines:
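HTRF competition between compound and C-terminally biotinylated Smac peptide AVPIAQK for His-tagged XIAP BIR3, both diluted to 90 nM before addition, in pH 7.5 HEPES/NaCl/BSA/Triton buffer. Eu-cryptate anti-His and streptavidin-XL665 added, ≥4 h at room temperature in the dark; inhibition % from 665/615 nm ratio versus no-compound wells.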

T2 sequence (P98170 252-356 limits assumed): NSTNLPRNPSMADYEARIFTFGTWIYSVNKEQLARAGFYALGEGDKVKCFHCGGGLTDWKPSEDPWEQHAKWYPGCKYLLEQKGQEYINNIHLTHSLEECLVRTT

In general, IC50 refers to the midpoint of a concentration-inhibition curve. On to `CN[C@@H](C)C(=O)N[C@H](C(=O)N1CCN(C(=O)c2cc3cc(F)c(F)cc3n2CC(=O)N2CCC[C@H]2COc2cc(CN3CCC(Oc4ccnc5ccsc45)CC3)on2)[C@@H](C)C1)C1CCCCC1` [Example 27, (S)-N-((S)-1-Cyclohexyl-2-((S)-4-(5,6-difluoro-1-(2-oxo-2-((S)-2-(((5-((4-(thieno[3,2-b]pyridin-7-yloxy)piperidin-1-yl)methyl)isoxazol-3-yl)oxy)methyl)pyrrolidin-1-yl)ethyl)-1H-indole-2-carbonyl)-3-methylpiperazin-1-yl)-2-oxoethyl)-2-(methylamino)propanamide], for which the DC50 at IRAK-M [1] is under 30 nM. Also, the IC50 lay within 300 to 1000 nM at IRAK-M [2] and 3000 to 30000 nM in assay [3].
For the molecule `CN[C@@H](C)C(=O)N[C@H](C(=O)N1CCN(C(=O)c2c(F)c3cc(F)ccc3n2CC(=O)N2CCC[C@H]2COc2cc(CN3CCC(Oc4ccnc5ccsc45)CC3)on2)CC1)C1CCCCC1` [Example 41, (S)-N-((S)-1-cyclohexyl-2-(4-(3,5-difluoro-1-(2-oxo-2-((S)-2-(((5-((4-(thieno[3,2-b]pyridin-7-yloxy)piperidin-1-yl)methyl)isoxazol-3-yl)oxy)methyl)pyrrolidin-1-yl)ethyl)-1H-indole-2-carbonyl)piperazin-1-yl)-2-oxoethyl)-2-(methylamino)propanamide], the DC50 at IRAK-M [1] was 100 to 300 nM. For the same molecule, on IRAK-M [2], the remaining binding at 1 µM was in the range of 25 to 50%. Also, the IC50 in assay [3] was 3000 to 30000 nM.
In the case of `CN[C@@H](C)C(=O)N[C@H](C(=O)N1CCN(C(=O)c2cc3cc(F)ccc3n2CC(=O)N2CCC[C@H]2COc2cc(CN3CCC(Oc4ccnc5ccsc45)CC3)on2)[C@@H](C)C1)C1CCCCC1` [Example 28, (S)-N-((S)-1-Cyclohexyl-2-((S)-4-(5-fluoro-1-(2-oxo-2-((S)-2-(((5-((4-(thieno[3,2-b]pyridin-7-yloxy)piperidin-1-yl)methyl)isoxazol-3-yl)oxy)methyl)pyrrolidin-1-yl)ethyl)-1H-indole-2-carbonyl)-3-methylpiperazin-1-yl)-2-oxoethyl)-2-(methylamino)propanamide], the DC50 on IRAK-M [1] was under 30 nM. The IC50 at IRAK-M [2] fell in the range of 300 to 1000 nM; in assay [3] it was 3000 to 30000 nM.
With `CN[C@@H](C)C(=O)N[C@H](C(=O)N1CCN(C(=O)c2cc3cc(F)c(F)cc3n2CC(=O)N2CCC[C@H]2COc2cc(CN3CCC(Oc4ccnc5ccsc45)CC3)on2)CC1)C1CCCCC1` [Example 25, (S)-N-((S)-1-Cyclohexyl-2-(4-(5,6-difluoro-1-(2-oxo-2-((S)-2-(((5-((4-(thieno[3,2-b]pyridin-7-yloxy)piperidin-1-yl)methyl)isoxazol-3-yl)oxy)methyl)pyrrolidin-1-yl)ethyl)-1H-indole-2-carbonyl)piperazin-1-yl)-2-oxoethyl)-2-(methylamino)propanamide hydrochloride], at IRAK-M [1], the DC50 was 30 to 100 nM. Also, on IRAK-M [2], the remaining binding at 1 µM was under 25%. For the same molecule, the 50% inhibitory concentration (IC50) in assay [3] fell in the range of 3000 to 30000 nM.
In the case of `CN[C@@H](C)C(=O)N[C@H](C(=O)N1CCN(C(=O)c2c(C(=O)N(C)CCOCCOCCOc3cc(CN4CCC(Oc5ccnc6ccsc56)CC4)on3)c3cc(F)c(F)cc3n2C)CC1)C1CCCCC1` [Example 1, 2-(4-((S)-2-Cyclohexyl-2-((S)-2-(methylamino)propanamido)acetyl)piperazine-1-carbonyl)-5,6-difluoro-N,1-dimethyl-N-(2-(2-(2-((5-((4-(thieno[3,2-b]pyridin-7-yloxy)piperidin-1-yl)methyl)isoxazol-3-yl)oxy)ethoxy)ethoxy)ethyl)-1H-indole-3-carboxamide hydrochloride], on IRAK-M [1], the DC50 fell in the range of 300 to 1000 nM. In addition, the IC50 on IRAK-M [2] was in the range of 300 to 1000 nM; in assay [3] it was 300 to 3000 nM.
As to `CN[C@@H](C)C(=O)N[C@H](C(=O)N1CCC[C@H]1c1nc(C(=O)c2cccc(OCCOCCOCCOc3cc(CN4CCC(Oc5ccnc6ccsc56)CC4)on3)c2)cs1)C1CCCCC1` [Example 59, (S)-N-((S)-1-cyclohexyl-2-oxo-2-((S)-2-(4-(3-(2-(2-(2-((5-((4-(thieno[3,2-b]pyridin-7-yloxy)piperidin-1-yl)methyl)isoxazol-3-yl)oxy)ethoxy)ethoxy)ethoxy)benzoyl)thiazol-2-yl)pyrrolidin-1-yl)ethyl)-2-(methylamino)propanamide], the DC50 on IRAK-M [1] was 300 to 1000 nM. For the same molecule, at IRAK-M [2], the remaining binding at 1 µM was under 25%. In addition, in assay [3], the 50% inhibitory concentration (IC50) is under 300 nM.
Regarding `CN[C@@H](C)C(=O)N[C@H](C(=O)N1CCN(C(=O)c2cc3cc(F)c(F)cc3n2CC(=O)N2CCOC[C@H]2COc2cc(CN3CCC(Oc4ccnc5ccsc45)CC3)on2)CC1)C1CCCCC1` [Example 44, (S)-N-((S)-1-cyclohexyl-2-(4-(5,6-difluoro-1-(2-oxo-2-((S)-3-(((5-((4-(thieno[3,2-b]pyridin-7-yloxy)piperidin-1-yl)methyl)isoxazol-3-yl)oxy)methyl)morpholino)ethyl)-1H-indole-2-carbonyl)piperazin-1-yl)-2-oxoethyl)-2-(methylamino)propanamide], the DC50 on IRAK-M [1] is 300 to 1000 nM. In addition, the remaining binding at 1 µM at IRAK-M [2] lay in the range of 25 to 50%. Besides, the IC50 in assay [3] lay within 3000 to 30000 nM.
On to `CN[C@@H](C)C(=O)N[C@H](C(=O)N1CCN(C(=O)c2c(C)c3cc(F)ccc3n2CC(=O)N2CCC[C@H]2COc2cc(CN3CCC(Oc4ccnc5ccsc45)CC3)on2)CC1)C1CCCCC1` [Example 39, (S)-N-((S)-1-cyclohexyl-2-(4-(5-fluoro-3-methyl-1-(2-oxo-2-((S)-2-(((5-((4-(thieno[3,2-b]pyridin-7-yloxy)piperidin-1-yl)methyl)isoxazol-3-yl)oxy)methyl)pyrrolidin-1-yl)ethyl)-1H-indole-2-carbonyl)piperazin-1-yl)-2-oxoethyl)-2-(methylamino)propanamide], for which the DC50 on IRAK-M [1] was 100 to 300 nM. For the same molecule, the remaining binding at 1 µM on IRAK-M [2] was in the range of 25 to 50%. For the same molecule, the IC50 in assay [3] is 3000 to 30000 nM.
